Test results reported in US12551469B2 (priority 2020, dated 2026).

Experiments:
ARDS induced thrombosis = assay: Rat venous stasis (Wessler) model after LPS-induced lung injury (ARDS); type: in vivo, Sprague-Dawley rats
Description: This study assessed the efficacy of ABC294640 to reduce the incidence of adverse thromboembolic events in situ in acute respiratory distress syndrome (ARDS) conditions using a rat venous stasis model. This assay is designed to measure thrombotic risks following LPS-induced lung injury. LPS-induced lung injury is one of the most commonly used rodent models for ARDS and was described to mimic the neutrophilic inflammatory response observed in ARDS patients. The mechanism of LPS-induced ARDS is based on damage to endothelial cells and a systemic inflammatory response.
The venous stasis (Wessler) test in animals has been used extensively for over 40 years as a laboratory measure for in vivo hypercoagulability.
Test compound was administered by oral gavage 3 hours post-instillation and 24, 48 and 72 hours post-instillation, at a dose of 250 mg/kg. The appropriate amount of LPS from E. coli (O55:B5) was diluted in saline to obtain a final concentration of 400 μg/mL. This solution was given by intratracheal instillation (0.5 mL/kg). The vehicle was composed of PBS pH 7.4±0.1. ABC294640 was weighed and transferred in vehicle (PBS, 0.375%, pH 7.4) to obtain a final solution at 25 mg/mL. ABC294640 solution is stirred for 10 minutes at room temperature prior to dosing. This solution was given by oral gavage (250 mg/kg, 10 mL/kg).
Sprague-Dawley rats (male) weighing between 275 and 400 g were used for this study. Animals were randomly assigned to a treatment group by the Study Director. Food and water were given ad libitum. Observation for behavior and general health status were done until the sacrifice. The body weight was recorded before the instillation and 24, 48 and 72 hours post-instillation.
In this study, ARDS was induced by intratracheal instillation of LPS. Throughout the ARDS induction and development process, animal was dosed by oral gavage with vehicle or ABC294640 (3 h, 24 h, 48 and 72 hours post-instillation). […] The stasis was maintained for 30 minutes. The segment was then excised and its content scored. Subsequently, animal was euthanized by exsanguination.
• 1. Prior LPS or saline instillation, the functional respiratory parameters of all rat was assessed by whole-body plethysmography and SpO2 was evaluated on conscious rat with a collar probe pulse oximeter. Rat was first acclimatized to the plethysmograph chamber prior to the physiological assessment. The respiratory rate, the Penh and the inspiratory/expiratory time measurements was analyzed. • 2. […]
• 5. Rats were evaluated periodically to ensure animal well-being (general behavior and daily body weight). • 6. […] SpO2 and whole-body plethysmography were also evaluated 24, 48 and 72 hours post-instillation. • 8. […] The thrombi was measured, weighed and scored on a scale from 0 to 4 (see Table 2).

COVID-19 infection = assay: Pilot / compassionate use study of opaganib in hospitalized patients with COVID-19 pneumonia; type: in vivo, human
Protocol: Patients entered a screening period of up to 1 week. Eligible patients entered the treatment period for up to 2 weeks. All participants were followed for 2 weeks after their last dose of study drug, at the end of the 2 week treatment period, or once they had 2 consecutive daily negative viral swabs for the COVID-19 virus or at after premature drug discontinuation prior to Day 14. The maximum duration of study participation was 35 days […].
Each dose is administered with food or 15-30 minutes after tube-feeding, where appropriate. […] These patients had moderate to severe COVID-19-related pneumonia with hypoxia on supplemental oxygen.
Five patients were included in the analysis, and for comparison purposes, we used a control group with same-sex, same-severity patients (baseline characteristics). Univariate comparisons between the groups were performed with chi-square test for categorical variables and t-test or MannWhitney U-test for continuous variables, as appropriate. Time variables were compared with Cox proportional hazard regression, adjusted for age and background illnesses. CRP and lymphocyte changes were compared utilizing a repeated measures general linear model with a Bonferroni correction for multiple comparison.

COVID-19 pneumonia = assay: Randomized, double-blind, placebo-controlled Phase 2a study of opaganib in COVID-19 pneumonia; type: in vivo, human
Description: This was a phase 2a, proof of concept, multi-center randomized double-blind, parallel arm, placebo-controlled study. After informed consent was obtained, patients entered a screening phase for no more than 3 days, to determine eligibility. […] Treatment assignments remained blinded to the patient, investigator and hospital staff, as well as the sponsor. As there was no consensus for a definitive treatment specifically targeting the SARS-CoV-2 virus causing COVID-19 (Wilson, 2020), standard of care referred to regional, institutional or physician directed therapies, that were implemented during the COVID-19 pandemic.
Study drug was to be administered every day for 14 days (Day 1 to Day 14), unless the patient had been discharged from the hospital without requiring supplemental oxygen, in which case study drug would only be administered to Day 10.
Two patients were randomized in each group but not treated. […] Two patients in the opaganib arm experienced adverse events such that study drug was terminated, while one placebo patient was terminated due to an adverse event.
The primary efficacy endpoint calculated for each patient the area under the curve of the supplemental oxygen requirement through day 14, using the trapezoidal rule after subtracting the baseline oxygen requirement at each day. Days where no supplementary oxygen was needed, were recorded as 0. If several values of oxygen requirement (L/min) are recorded in a certain day, for the primary analysis the highest of these values were taken. In the primary analysis, for patients who die before Day 14, or require intubation and mechanical ventilation, missing daily values were assigned the maximal supplemental oxygen flow requirement of 8 L/min. […]
Supplemental oxygen requirement up to Day 14 was collected even if a patient discontinued treatment prior to Day 14 but continued in the study to Day 14. […] A sensitivity analysis to the above missing data handling approach was performed using an AUC summary statistics approach, in which groups AUC is calculated from the estimated parameters of a Repeated-Measures model. […]

[1] = tested on: SARS-CoV-2 clinical isolate (2019-nCoV/USA-WA1/2020); assay: Anti-viral activity against SARS-CoV-2 in HBEC (EpiAirway) ALI cultures, apical viral titer by TCID50 assay; type: cell-based
[2] = tested on: human bronchial epithelial cells (HBEC); details: male

Question: Which blood clot length (ARDS induced thrombosis; 250 mg/kg oral gavage) does the source give for `O=C(NCc1ccncc1)C12CC3CC(C1)CC(c1ccc(Cl)cc1)(C3)C2` [ABC294640, 3-(4-chlorophenyl)-adamantane-1-carboxylic acid (pyridin-4-ylmethyl)amide] here?
Answer: reduction

Question: What about the blood clot weight (ARDS induced thrombosis; 250 mg/kg oral gavage) of the same compound?
Answer: reduction

Question: And the thrombosis (ARDS induced thrombosis; 250 mg/kg oral gavage 3, 24, 48, 72 h post LPS instillation, 30 min stasis)?
Answer: reduction of thrombosis

Question: What about the total thrombus score (ARDS induced thrombosis; 250 mg/kg oral gavage, score 0 to 4) of the same compound?
Answer: reduction

Question: How did the “Clinical Assessment” value (COVID-19 infection; Patient 1 (14 d), started as severe on maximal OptiFlow 3 Apr. 2020, one negative viral swab as of 22 April) turn out when `Cl.O=C(NCc1ccncc1)C12CC3CC(C1)CC(c1ccc(Cl)cc1)(C3)C2` [opaganib, 3-(4-chlorophenyl)-adamantane-1-carboxylic acid (pyridin-4-ylmethyl) amide, hydrochloride salt] was run?
Answer: 3 Apr. 2020; RA by 16 April.

Question: What about the “Clinical Assessment” value (COVID-19 infection; Patient 2 (14 d), started as severe+, planning for intubation 7 Apr. 2020, RA by 20 Apr. 2020, D/C on 22 Apr. 2020) of the same compound?
Answer: 7 Apr. 2020; RA by 20

Question: What about the “Clinical Assessment” value (COVID-19 infection; Patient 3 (7 d), moderate-severe, on OptiFlow 13 Apr. 2020, RA by 17 Apr. 2020, D/C on 19 Apr. 2020) of the same compound?
Answer: 13 Apr. 2020; RA by

Question: What about the “Clinical Assessment” value (COVID-19 infection; Patient 4 (11 d), started severe+ 70% OptiFlow on 13 Apr. 2020) of the same compound?
Answer: RA on 22 Apr. 2020

Question: What about the “Clinical Assessment” value (COVID-19 infection; Patient 5 (2 d), started moderate on 13 Apr. 2020, nasal cannula, after one day on opaganib, D/C on 14 Apr. 2020 on RA) of the same compound?
Answer: Dramatic improvement

Question: And the “C-Reactive Protein (CRP) change” value (COVID-19 infection; all six patients)?
Answer: reduction in C-Reactive Protein (CRP)

Question: And the “clinical improvement, including reduced supplemental oxygenation and higher lymphocyte counts” value (COVID-19 infection; all six patients)?
Answer: measurable clinical improvement

Question: And the “cases requiring mechanical ventilation” value (COVID-19 infection; compared with 33% of controls)?
Answer: none of the cases required mechanical ventilation

Question: What about the “lymphocyte count increase vs. matched controls” value (COVID-19 infection; five patients vs same-sex, same-severity control group) of the same compound?
Answer: significantly faster increase in lymphocyte count

Question: And the “patients back to breathing room air” value (COVID-19 infection; of 6 treated patients)?
Answer: 5 patients

Question: What about the “patients discharged from hospital” value (COVID-19 infection; of 6 treated patients) of the same compound?
Answer: 3 patients

Question: What about the “moderate to-severe patients improved significantly” value (COVID-19 infection; of seven compassionate use patients, patient #7 had only 1 day of treatment) of the same compound?
Answer: 6 patients

Question: And the “patients with adverse events such that study drug was terminated” value (COVID-19 pneumonia; opaganib arm, one placebo patient)?
Answer: Two

Question: What about the “patients with serious adverse events (SAEs) vs. placebo arm” value (COVID-19 pneumonia; top-line results) of the same compound?
Answer: fewer patients suffered from serious adverse events (SAEs)

Question: And the “safety vs. placebo arm” value (COVID-19 pneumonia; top-line results)?
Answer: safe, with no material safety differences

Question: What about the “50% inhibition reached in concentration range tested” value ([1]; 0.05 to 11.25 μg/ml) of the same compound?
Answer: neither 50% inhibition nor 50% cytotoxicity were reached

Question: And the “concentration at which complete inhibition of infectious virus production starts” value ([1]; 3 days incubation)?
Answer: 1 µg/mL

Question: And the infectious virus production ([1]; opaganib 0.05 to 11.25 μg/ml, 3 days incubation)?
Answer: dose-dependent reduction in infectious virus production

Question: And the “50% cytotoxicity reached in concentration range tested” value [2]?
Answer: neither 50% inhibition nor 50% cytotoxicity were reached
